In test [1] the target is T1, interaction between GMPPNP-bound recombinant K-Ras4B G12C mutant protein and cRAF RAS-binding domain (cRAF-RBD) (Homo sapiens, UniProt P01116, G12C).
T1 construct: His-tag (N)
The test can be described thus: Inhibitory activity on interaction between KRAS G12C and cRAF (Alpha technology). To be noted: GMPPNP-bound KRAS G12C incubated with compound 25° C. 1 hour; Table 2-1; read-out: IC50. Summed up:
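Alpha signal measured 1.5 h after adding cRAF-RBD (aa 50-132) and detection reagents to GMPPNP-bound KRAS G12C (aa 1-169) pretreated 1 h at 25° C with compound (pH 7.5 buffer). 0% inhibition = DMSO, 100% = GDP-loaded KRAS; IC50 by curve fit.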

The subject of another test is MIA PaCa-2 cells. In words: Growth inhibition activity on KRAS-G12C mutant cell line (CellTiter-Glo 3D). It is filed as cell-based, human. Particulars: Homo sapiens, MIA PaCa-2, 72 h, MIA PaCa-2, 3-day culture with compound; Table 3-1. An outline of the steps: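 IC50 (nM) derived from inhibition of luminescence (CellTiter-Glo 3D) relative to compound-free wells. Cells were seeded in U-bottom plates, grown 1 day, then exposed to compound for 3 days at 37 °C with 0.2% final DMSO.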
(In general: Cellular ATP, detected with luciferase, serves as a proxy for viable cell number.)

Usually IC50 stands for the concentration that gives 50% inhibition.

T1 sequence (P01116 with tags, fused parts or gaps isoform P01116-2 G12C): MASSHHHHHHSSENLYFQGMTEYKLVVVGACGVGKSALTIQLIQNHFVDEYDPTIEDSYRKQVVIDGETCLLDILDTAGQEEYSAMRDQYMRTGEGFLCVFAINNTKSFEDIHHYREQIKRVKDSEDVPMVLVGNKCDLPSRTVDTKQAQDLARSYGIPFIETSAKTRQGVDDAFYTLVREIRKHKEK

In the case of `COCc1nc2c3c(c(C(F)F)cc2n1C)-c1cccn2c(C(=O)c4cc(F)c(NC(=O)/C=C/CNC5(C)COC5)c(F)c4)cc(c12)CCN3C` [Example 224, (E)-N-(4-(7-(difluoromethyl)-10-(methoxymethyl)-9,12-dimethyl-9,12,13,14-tetrahydroimidazo[4″,5″:5′,6′]benzo[1′,2′:2,3]azocino[4,5,6-hi]indolizine-2-carbonyl)-2,6-difluorophenyl)-4-((3-methyloxetan-3-yl)amino)but-2-enamide], the half-maximal inhibitory concentration (IC50) in test [1] was found to be 28.2 nM; in the test with MIA PaCa-2 cells, 17.8 nM.
The matching figures for `COc1cc2c(nc(C)n2C)c2c1-c1cccn3c(C(=O)c4cc(F)c(NC(=O)/C=C/CNC5(C)CC5)c(F)c4)cc(c13)CCS2` [Example 225, (E)-N-(2,6-difluoro-4-(7-methoxy-9,10-dimethyl-13,14-dihydro-9H-imidazo[4″,5″:5′,6′]benzo-[1′,2′:2,3]thiocino[4,5,6-hi]indolizine-2-carbonyl)-phenyl)-4-((1-methyl-cyclopropyl)amino)but-2-enamide]: 10.1 nM and 7.18 nM.
The matching figures for `CN1CCc2cc(C(=O)c3cc(F)c(NC(=O)/C=C/CN4CCCC4)c(F)c3)n3cccc(c23)-c2c(C(F)(F)F)cc3c(ncn3C)c21` [Example 226, (E)-N-(4-(9,12-dimethyl-7-(trifluoromethyl)-9,12,13,14-tetrahydro-imidazo[4″,5″:5′,6′]benzo-[1′,2′:2,3]azocino[4,5,6-hi]indolizine-2-carbonyl)-2,6-difluorophenyl)-4-(pyrrolidin-1-yl)but-2-enamide]: 63.3 nM and 13.5 nM.
In the case of `CN1CCc2cc(C(=O)c3cc(F)c(NC(=O)/C=C/CN4CCC[C@H]4CO)c(F)c3)n3cccc(c23)-c2c(C(F)(F)F)cc3c(ncn3C)c21` [Example 227, (S,E)-N-(4-(9,12-dimeth-yl-7-(trifluoromethyl)-9,12,13,14-tetrahydro-imidazo[4″,5″:5′,6′]benzo-[1′,2′:2,3]azocino[4,5,6-hi]indolizine-2-carbonyl)-2,6-difluorophenyl)-4-(2-(hydroxymethyl)pyrrol-idin-1-yl)but-2-enamide], the IC50 in test [1] is 34 nM; with MIA PaCa-2 cells it was 10.2 nM.
With `Cn1cnc2c3c(c(C(F)(F)F)cc21)-c1cccn2c(C(=O)c4cc(F)c(NC(=O)/C=C/CN5CC6COC(C6)C5)c(F)c4)cc(c12)CCO3` (stereo not shown) [Example 228, (E)-4-(6-oxa-3-azabicyclo-[3.2.1]octan-3-yl)-N-(2,6-difluoro-4-(9-methyl-7-(trifluoromethyl)-13,14-dihydro-9H-imidazo-[4″,5″:5′,6′]benzo[1′,2′: 2,3]oxocino[4,5,6-hi]-indolizine-2-carbonyl)-phenyl)but-2-enamide], the half-inhibitory concentration (IC50) in test [1] was 32.5 nM; in the test on MIA PaCa-2 cells, 35.8 nM.
The like results for `Cn1cnc2c3c(c(C(F)(F)F)cc21)-c1cccn2c(C(=O)c4cc(F)c(NC(=O)/C=C/CN5CC6CC5CCO6)c(F)c4)cc(c12)CCO3` (stereo not shown) [Example 229, (E)-4-(2-oxa-6-azabicyclo-[3.2.1]octan-6-yl)-N-(2,6-difluoro-4-(9-methyl-7-(trifluoromethyl)-13,14-dihydro-9H-imidazo-[4″,5″:5′,6′]benzo[1′,2′: 2,3]oxocino[4,5,6-hi]-indolizine-2-carbonyl)-phenyl)but-2-enamide] were, in that order, 12.7 nM and 11.3 nM.
On to `Cn1cnc2c3c(c(C(F)(F)F)cc21)-c1cccn2c(C(=O)c4cc(F)c(NC(=O)/C=C/CN5CC6COCC5C6)c(F)c4)cc(c12)CCO3` (stereo not shown) [Example 230, (E)-4-(3-oxa-6-azabicyclo-[3.2.1]octan-6-yl)-N-(2,6-difluoro-4-(9-methyl-7-(trifluoromethyl)-13,14-dihydro-9H-imidazo-[4″,5″:5′,6′]benzo[1′,2′: 2,3]oxocino[4,5,6-hi]-indolizine-2-carbonyl)-phenyl)but-2-enamide], for which the IC50 was 20.1 nM in test [1] and 14.4 nM in the test with MIA PaCa-2 cells.
Regarding `CC1(NC/C=C/C(=O)Nc2c(F)cc(C(=O)c3cc4c5c(cccn35)-c3c(cc(N5CCOC5=O)cc3C(F)(F)F)OCC4)cc2F)CC1` [Example 232, (E)-N-(2,6-difluoro-4-(7-(2-oxooxazolidin-3-yl)-9-(trifluoromethyl)-3.4-dihydrobenzo[2,3]oxo-cino-[4,5,6-hi]indolizine-1-carbonyl)phenyl)-4-((1-methylcyclopropyl)amino)-but-2-enamide], the IC50 came out at 49.7 nM in test [1] and 18 nM with MIA PaCa-2 cells.
As for `CC1(NC/C=C/C(=O)Nc2c(F)cc(C(=O)c3cc4c5c(cccn35)-c3c(cc(N5CCNC5=O)cc3C(F)(F)F)OCC4)cc2F)CC1` [Example 233, (E)-N-(2,6-difluoro-4-(7-(2-oxoimidazolidin-1-yl)-9-(trifluoromethyl)-3,4-dihydrobenzo[2,3]oxo-cino[4,5,6-hi]indolizine-1-carbonyl)phenyl)-4-((1-methylcyclopropyl)-amino)but-2-enamide], the half-maximal inhibitory concentration (IC50) is 52.6 nM in test [1] and 14 nM in the test with MIA PaCa-2 cells.
In the case of `Cn1cnc2c3c(c(C(F)(F)F)cc21)-c1cccn2c(C(=O)c4cc(F)c(NC(=O)/C=C/CN5CC6CCC5C6)c(F)c4)cc(c12)CCO3` (stereo not shown) [Example 234, (E)-4-(2-azabicyclo-[2.2.1]heptan-2-yl)-N-(2,6-difluoro-4-(9-meth-yl-7-(trifluoromethyl)-13,14-dihydro-9H-imidazo-[4″,5″:5′,6′]-benzo[1′,2′:2,3]oxocino-[4,5,6-hi]indolizine-2-carbonyl)phenyl)but-2-enamide], the IC50 in test [1] is 20.5 nM; in the test on MIA PaCa-2 cells, 7.08 nM.
For the compound `Cn1cnc2c3c(c(C(F)(F)F)cc21)-c1cccn2c(C(=O)c4cc(F)c(NC(=O)/C=C/CN5C6CCCC5CC6)c(F)c4)cc(c12)CCO3` [Example 235, (E)-4-((1R,5S)-8-azabicyclo[3.2.1]octan-8-yl)-N-(2,6-difluoro-4-(9-methyl-7-(trifluoro-methyl)-13,14-dihydro-9H-imidazo[4″,5″:5′,6′]-benzo[1′,2′:2,3]oxocino-[4,5,6-hi]indolizine-2-carbonyl)phenyl)but-2-enamide], the half-maximal inhibitory concentration (IC50) in test [1] is 21.9 nM; in the test on MIA PaCa-2 cells it was 17 nM.
For `Cn1cnc2c3c(c(C(F)(F)F)cc21)-c1cccn2c(C(=O)c4cc(F)c(NC(=O)/C=C/CN5C6CCC5CC6)c(F)c4)cc(c12)CCO3` [Example 236, (E)-4-(7-azabicyclo[2.2.1]-heptan-7-yl)-N-(2,6-difluoro-4-(9-methyl-7-(trifluoromethyl)-13,14-dihydro-9H-imidazo-[4″,5″:5′,6′]benzo[1′,2′: 2,3]oxocino[4,5,6-hi]-indolizine-2-carbonyl)-phenyl)but-2-enamide], the IC50 came out at 16.5 nM in test [1] and 4.03 nM in the test on MIA PaCa-2 cells.
Regarding `COCCn1c(C)nc2c3c(c(OC)cc21)-c1cccn2c(C(=O)c4cc(F)c(NC(=O)C=CCNC5(C)CC5)c(F)c4)cc(c12)CCS3` [Example 240, (E)-N-(2,6-difluoro-4-(7-methoxy-9-(2-methoxyethyl)-10-methyl-13,14-dihydro-9H-imidazo[4″,5″:5′,6′]benzo[1′,2′:2,3]thiocino[4,5,6-hi]indolizine-2-carbonyl)phenyl)-4-((1-methylcyclopropyl)amino)but-2-enamide], the concentration for half-maximal inhibition (IC50) turned out to be 8.93 nM in test [1] and 14.5 nM with MIA PaCa-2 cells.
In the case of `COCCn1c(C)nc2c3c(c(OC)cc21)-c1cccn2c(C(=O)c4cc(F)c(NC(=O)/C=C/CNC5(C)CC5)c(F)c4)cc(c12)CC[S+]3[O-]` (stereo not shown) [Example 241], the results for the IC50 (in test [1]; in the test on MIA PaCa-2 cells) were 31 nM and 877 nM, respectively.

The values are drawn from patent US20240262842A1, “SMALL MOLECULE INHIBITORS OF KRAS G12C MUTANT” (Merck Sharp & Dohme LLC, priority 2021, published 2024).
